Legend:
[1] = system: coagulase-negative Staphylococci (CNS); test: Full-thickness porcine wounds infected with bacteria, treated with nitric oxide with or without oxygen (Example 1); format: in vivo, pig
[2] = system: Human head lice, permethrin(kdr)-resistant SF-HL strain; test: Gas chamber bioassay on human head louse females and eggs (Example 13); conditions: for lice killed: adult female lice, 1 liter/minute
Protocol: The ability of nitric oxide or nitric oxide+oxygen to kill human head louse females and eggs was evaluated using gas chamber bioassay.
Human head lice from the permethrin(kdr)-resistant SF-HL strain were used in a nitric oxide gas bioassay to determine louse mortality at different exposure intervals. Adult female lice and aged eggs (6-8 day old) were used in all bioassays. The lice or eggs were placed in the bottom of a sterile disposable Petri dishes (60×20 mm) and left uncovered. The dish with lice or eggs was placed inside a polyethylene bag and the bag was taped shut with HY-TAPE® (HY-TAPE Intl., Patterson, N.Y.) to seal the chamber and to minimize the volume of gas inside the chamber. The treatments used were either nitric oxide, in combination with oxygen mixed in equal parts at a final concentration of 10,000 ppm nitric oxide and 20% oxygen, or a treatment with nitric oxide alone at 10,000 ppm in nitrogen both with a flow rate of 1 liter/minute. The gas tank was connected to the chamber with PVC tubing and plastic connectors. The nitric oxide, in combination with oxygen, was mixed in the tubing before the chamber inlet. The chamber outlet was also connected with PVC tubing and fed to a NO scrubber to trap the NO gas leaving the chamber. Additionally, tufts of human hair (blond and brown) were placed inside the chamber for a 30 minute exposure interval to nitric oxide+oxygen to assess discoloration of the hair for cosmetic purposes.

[3] = system: mild tinea pedis; test: Single-site clinical trial of gaseous nitric oxide in mild tinea pedis (Example 10); format: in vivo, human; conditions: 1% gaseous nitric oxide in nitrogen, 10 patients, FIG. 14
Protocol: To evaluate the effectiveness of gaseous nitric oxide treatment against mild tinea pedis, a single-site clinical trial treating 10 human patients with mild tinea pedis was conducted. […] The foot of each patient was fitted with a flexible, plastic boot-like enclosure that was sealed at the mid-calf (see, for example, FIG. 19) and the foot was bathed with 1% gaseous nitric oxide in nitrogen at a fixed flow of 1 liter per minute for a total of 2 hours divided over 5 treatment days. Gas entered the boot-like enclosure near the toe region with passive diffusion from the enclosure into a well-ventilated examination room. On day 1, patients were treated for 10 minutes. On day 2, patients were treated for 20 minutes. On each of days 3, 4 and 5, patients were treated for 30 minutes. On days 0, 1, 2, 3, 4, 5 and 12, each patient was assessed by a podiatrist blinded to the patient's treatment group and given a clinical symptom severity score ranging from 0 to 64. The clinical symptom severity score is determined by scoring each of 8 categories (i.e., fissures/cracks, yellow crusting (ruptured blisters), maceration (white moist skin), pruritus (itching), scaling, erythema, vesicles/blisters and burning) on an 8-point scale (i.e., 0=absent, 1-2 mild, 3-5 moderate and 6-8 severe). […]

[4] = system: moderate-severe interdigital and/or moccasin-type tinea pedis; test: Single-site placebo-controlled clinical trial of gaseous nitric oxide in moderate-severe tinea pedis (Example 11); format: in vivo, human; conditions: 1% nitric oxide
Protocol: To evaluate the effectiveness of gaseous nitric oxide treatment against moderate-severe interdigital and/or moccasin-type tinea pedis, a single-site, placebo-controlled clinical trial treating≧50 evaluable human patients with moderate-severe interdigital tinea pedis was conducted. […] The foot of each patient was fitted with a flexible, plastic boot-like enclosure that was sealed at the mid-calf (see, for example, FIG. 19) and the foot was bathed with 1% gaseous nitric oxide in nitrogen, or 1% gaseous nitric oxide and 20% oxygen in nitrogen, or placebo (i.e., nitrogen) at a fixed flow of 1 liter per minute for 40 minutes each day for each of three consecutive days, Gas entered the boot-like enclosure near the toe region with passive diffusion from the enclosure into a well-ventilated examination room. Each foot of each patient was fitted with an air-tight, ankle-high covering […] On days 1, 3 and 12, each patient was assessed by a podiatrist blinded to the patient's treatment group and given a clinical symptom severity score ranging from 0 to 64.

[5] = mixture of 1000 ppm nitric oxide and 21% oxygen; cited from earlier work
[6] = 30 minute exposure interval, 10,000 ppm nitric oxide

[N]=O [nitric oxide]
amount of total bacteria in biopsies taken from the center of the wounds ([1]; 10,000 ppm nitric oxide, p<0.05, FIG. 10): significant decrease | average decrease of total bacteria in center biopsies, compared with nitric oxide in combination with oxygen ([1]; pig, in vivo): smaller decrease | ovicidal activity on aged eggs (6-8 days old) [2, 6]: not ovicidal | lice killed ([2]; 10 minute exposure interval, 10,000 ppm nitric oxide): did not kill any | lice killed [2, 6]: did not kill any | egg hatchability ([2]; aged eggs (6-8 days old), 30 minute exposure interval, compared with untreated control eggs): not different from untreated control eggs | average clinical symptom severity score (0 to 64) during treatment ([3]; 1 liter per minute, 2 hours over 5 treatment days): began to decrease on the second day of treatment and continued to decrease until the fifth day of treatment | average clinical symptom severity score on day 12, seven days after the last treatment [3]: remained as low as it was on day 5 | clinical symptom severity score on day 3 compared with day 1 ([4]; 40 minutes each day for three days, all patients treated): lower on day 3 than on day 1 | clinical symptom severity score on day 12 compared with day 3 ([4]; 40 minutes each day for three days, most patients treated): lower clinical symptom severity score on day 12 than on day 3 | patients with interdigital tinea who reached the primary clinical endpoint score of ≦8 ([4]; of the 13 patients with interdigital tinea): 8 patients | time for half of the nitric oxide to react to become nitric dioxide [5]: about 3.5 minutes

Source: patent US20110245759A1, “Methods of Treating An Infection with Nitric Oxide” (NITRIC BIOTHERAPEUTICS, INC., priority 2008, published 2011)
